{"source": "patent US11274106B2", "about": "“Topoisomerase inhibitors with antibacterial and anticancer activity” (THE BOARD OF TRUSTEES OF THE UNIVERSITY OF ILLINOIS, priority 2017, dated 2022)", "key": {"S. aureus": {"test_system": "S. aureus", "test": "Antibacterial MIC, microbroth dilution, S. aureus", "type": "cell-based", "conditions": "for MIC: Staphylococcus aureus", "method": "(§1) To investigate this possibility, the antibacterial effects of the DNM derivatives was assessed against strains of E. coli, S. aureus, and MRSA using the microbroth dilution method (Table 2)."}, "MRSA": {"test_system": "MRSA", "test": "Antibacterial MIC, microbroth dilution, MRSA", "type": "cell-based, S. aureus", "conditions": "for MIC: Staphylococcus aureus, MRSA, microbroth dilution", "method": "as §1"}, "E. coli": {"test_system": "E. coli", "test": "Antibacterial MIC, microbroth dilution, E. coli", "type": "cell-based", "conditions": "for MIC: Escherichia coli", "method": "as §1"}, "[1]": {"test_system": "MDA-MB-231 triple negative breast cancer cells", "test": "Antiproliferative SRB assay, MDA-MB-231", "type": "cell-based", "conditions": "for IC50: mean ± SEM", "method": "FIG. 1. […] Cell death measured by SRB assay after 72 hour of compound exposure (n≥3 biological replicates, error bars show SEM). IC50 values given as mean±SEM from ≥3 biological replicates.\nTo investigate the feasibility of developing a class of antitumor antibiotics based upon the DNM scaffold, the ability of the DNM to exert an antiproliferative effect against MDA-MB-231 breast cancer cells was evaluated."}, "H460": {"test_system": "H460", "test": "Antiproliferative SRB assay, H460", "type": "cell-based", "conditions": "Homo sapiens, NCI-H460, 72 h, Lung cancer, mean ± SEM", "description": "(§2) Topoisomerase inhibitors such as DOX are used as single agent and in combination therapy to treat a wide-range of cancer types."}, "HL-60": {"test_system": "HL-60", "test": "Cell viability Alamar Blue assay, HL-60", "type": "cell-based", "conditions": "Homo sapiens, HL-60, 72 h, Leukemia, mean ± SEM", "description": "as §2"}, "HCT-116": {"test_system": "HCT-116", "test": "Antiproliferative SRB assay, HCT-116", "type": "cell-based", "conditions": "Homo sapiens, HCT-116, 72 h, Colon cancer, mean ± SEM", "description": "as §2"}, "BT-474": {"test_system": "BT-474", "test": "Antiproliferative SRB assay, BT-474", "type": "cell-based", "conditions": "Homo sapiens, BT-474, 72 h, Breast cancer, mean ± SEM", "description": "as §2"}, "IMR32": {"test_system": "IMR32", "test": "Antiproliferative SRB assay, IMR32", "type": "cell-based", "conditions": "Homo sapiens, IMR-32, 72 h, Neuroblastoma, mean ± SEM", "description": "as §2"}, "panel of cancer cells": {"test_system": "panel of cancer cells", "test": "Average over panel of 10 cancer cell lines", "type": "cell-based", "conditions": "72 hour, read-out: Average (mean) IC50 over the cell line panel", "description": "as §2"}, "Jurkat": {"test_system": "Jurkat", "test": "Cell viability Alamar Blue assay, Jurkat", "type": "cell-based", "conditions": "Homo sapiens, 72 h, Leukemia, mean ± SEM", "description": "as §2"}, "HeLa": {"test_system": "HeLa", "test": "Antiproliferative SRB assay, HeLa", "type": "cell-based", "conditions": "Homo sapiens, 72 h, Ovarian cancer (footnote e), mean ± SEM", "description": "as §2"}, "ES-2": {"test_system": "ES-2", "test": "Antiproliferative SRB assay, ES-2", "type": "cell-based", "conditions": "Homo sapiens, ES-2, 72 h, Cervical cancer (footnote f), mean ± SEM", "description": "as §2"}, "HOS": {"test_system": "HOS", "test": "Antiproliferative SRB assay, HOS", "type": "cell-based", "conditions": "Homo sapiens, 72 h, Osteosarcoma, mean ± SEM", "description": "as §2"}, "[2]": {"conditions": "Homo sapiens, MDA-MB-231, 72 h, SRB assay, 72 hour compound exposure, read-out: MDA-MB-231 IC50"}, "[3]": {"conditions": "Homo sapiens, MDA-MB-231, 72 h, Breast cancer, SRB assay, read-out: 72 hour IC50, MDA-MB-231"}}, "note": "Where two headings read alike, the source gives them in different places.", "data": [{"smiles": "Cc1cc(=O)n(C)c2c3c4c(cc12)c(C)cc(=O)n4C(C(N)=O)O3", "note": "(stereo not drawn) [Compound 4]", "values": [{"measurement": "MIC", "setting": "S. aureus", "result": "> 16", "unit": "µg/mL"}, {"measurement": "MIC", "setting": "MRSA", "result": 4, "unit": "µg/mL"}, {"measurement": "MIC", "setting": "E. coli", "result": "> 16", "unit": "µg/mL"}, {"measurement": "IC50", "setting": "[1]; [2]", "result": "8300 ± 700", "unit": "nM"}]}, {"smiles": "Cc1cc(=O)n(C)c2c3c4c(cc12)c(C)cc(=O)n4C(CO)CO3", "note": "(stereo not drawn) [Compound 7]", "values": [{"measurement": "MIC", "setting": "S. aureus", "result": 16, "unit": "µg/mL"}, {"measurement": "Activity against MRSA", "setting": "MRSA", "result": "remains effective against MRSA"}, {"measurement": "MIC", "setting": "MRSA", "result": 0.25, "unit": "µg/mL"}, {"measurement": "MIC", "setting": "E. coli", "result": "> 16", "unit": "µg/mL"}, {"measurement": "IC50", "setting": "[1]; [2]", "result": "> 10000", "unit": "nM"}]}, {"smiles": "Cc1cc(=O)n(C)c2c3c4c(cc12)c(C)cc(=O)n4C(C(=O)O)O3", "note": "(stereo not drawn) [Compound 5]", "values": [{"measurement": "MIC", "setting": "S. aureus", "result": "> 32", "unit": "µg/mL"}, {"measurement": "MIC", "setting": "MRSA", "result": 2, "unit": "µg/mL"}, {"measurement": "MIC", "setting": "E. coli", "result": "> 32", "unit": "µg/mL"}, {"measurement": "IC50", "setting": "[1]; [2]", "result": "3600 ± 600", "unit": "nM"}]}, {"smiles": "Cc1cc(=O)n(C)c2c3c4c(cc12)c(C)cc(=O)n4C(CN1CCCCC1)CO3", "note": "(stereo not drawn) [Compound 21]", "values": [{"measurement": "IC50", "setting": "H460", "result": "11 ± 2", "unit": "nM"}, {"measurement": "MIC", "setting": "S. aureus", "result": 0.5, "unit": "µg/mL"}, {"measurement": "IC50", "setting": "HL-60", "result": "55 ± 11", "unit": "nM"}, {"measurement": "IC50", "setting": "HCT-116", "result": "8 ± 1", "unit": "nM"}, {"measurement": "IC50", "setting": "BT-474", "result": "90 ± 10", "unit": "nM"}, {"measurement": "IC50", "setting": "IMR32", "result": "6 ± 1.6", "unit": "nM"}, {"measurement": "MIC", "setting": "E. coli", "result": 4, "unit": "µg/mL"}, {"measurement": "IC50", "setting": "panel of cancer cells", "result": 31, "unit": "nM"}, {"measurement": "IC50", "setting": "Jurkat", "result": "33 ± 4", "unit": "nM"}, {"measurement": "IC50", "setting": "[1]; [3]", "result": "17 ± 1", "unit": "nM"}, {"measurement": "IC50", "setting": "[1]; [2]", "result": "17 ± 1", "unit": "nM"}, {"measurement": "IC50", "setting": "HeLa", "result": "46 ± 2", "unit": "nM"}, {"measurement": "IC50", "setting": "ES-2", "result": "22 ± 6", "unit": "nM"}, {"measurement": "IC50", "setting": "HOS", "result": "21 ± 3", "unit": "nM"}]}, {"smiles": "COc1cccc2c1C(=O)c1c(O)c3c(c(O)c1C2=O)C[C@@](O)(C(=O)CO)C[C@@H]3O[C@H]1C[C@H](N)[C@H](O)[C@H](C)O1", "note": "[Doxorubicin, doxorubicin, reference compound]", "values": [{"measurement": "IC50", "setting": "H460", "result": "6.1 ± 1", "unit": "nM"}, {"measurement": "IC50", "setting": "HL-60", "result": "84 ± 11", "unit": "nM"}, {"measurement": "IC50", "setting": "BT-474", "result": "260 ± 70", "unit": "nM"}, {"measurement": "IC50", "setting": "IMR32", "result": "2.9 ± 0.4", "unit": "nM"}, {"measurement": "IC50", "setting": "panel of cancer cells", "result": 55, "unit": "nM"}, {"measurement": "IC50", "setting": "Jurkat", "result": "17 ± 3", "unit": "nM"}, {"measurement": "Antiproliferative effect against MDA-MB-231 cells", "setting": "[1]; FIG. 1, SRB assay, 72 hour", "result": "sensitive"}, {"measurement": "IC50", "setting": "[1]; [3]", "result": "21 ± 2", "unit": "nM"}, {"measurement": "IC50", "setting": "HeLa", "result": "24 ± 9", "unit": "nM"}, {"measurement": "IC50", "setting": "ES-2", "result": "32 ± 3", "unit": "nM"}, {"measurement": "IC50", "setting": "HOS", "result": "19 ± 7", "unit": "nM"}]}, {"smiles": "Cc1cc(=O)n(C)c2c3c4c(cc12)c(C)cc(=O)n4C(CN)CO3", "note": "(stereo not drawn) [Compound 19]", "values": [{"measurement": "S. aureus MIC", "setting": "S. aureus", "result": 32, "unit": "µg/mL"}, {"measurement": "E. coli MIC", "setting": "E. coli", "result": ">16", "unit": "µg/mL"}, {"measurement": "IC50", "setting": "[1]; SRB assay, 72 hour compound exposure, read-out: MDA-MB-231 IC50", "result": "4000 ± 800", "unit": "nM"}]}, {"smiles": "Cc1cc(=O)n2c3c(c4c(cc13)c1ccccc1c(=O)n4C)OCC2CN1CCCCC1", "note": "(stereo not drawn) [Compound 23]", "values": [{"measurement": "IC50", "setting": "H460", "result": "24 ± 2", "unit": "nM"}, {"measurement": "MIC", "setting": "S. aureus", "result": 0.5, "unit": "µg/mL"}, {"measurement": "IC50", "setting": "HL-60", "result": "440 ± 130", "unit": "nM"}, {"measurement": "IC50", "setting": "HCT-116", "result": "79 ± 10", "unit": "nM"}, {"measurement": "IC50", "setting": "BT-474", "result": "1000 ± 100", "unit": "nM"}, {"measurement": "IC50", "setting": "IMR32", "result": "20 ± 0.2", "unit": "nM"}, {"measurement": "MIC", "setting": "E. coli", "result": 2, "unit": "µg/mL"}, {"measurement": "IC50", "setting": "panel of cancer cells", "result": 214, "unit": "nM"}, {"measurement": "IC50", "setting": "Jurkat", "result": "240 ± 40", "unit": "nM"}, {"measurement": "IC50", "setting": "[1]; [3]", "result": "79 ± 7", "unit": "nM"}, {"measurement": "IC50", "setting": "[1]; [2]", "result": "79 ± 7", "unit": "nM"}, {"measurement": "IC50", "setting": "HeLa", "result": "136 ± 5", "unit": "nM"}, {"measurement": "IC50", "setting": "ES-2", "result": "67 ± 8", "unit": "nM"}, {"measurement": "IC50", "setting": "HOS", "result": "55 ± 1", "unit": "nM"}]}, {"smiles": "Cc1cc(=O)n(-c2ccccc2)c2c3c4c(cc12)c(C)cc(=O)n4C(CN)CO3", "note": "(stereo not drawn) [Compound 13]", "values": [{"measurement": "MIC", "setting": "S. aureus", "result": "> 16", "unit": "µg/mL"}, {"measurement": "MIC", "setting": "E. coli", "result": "> 16", "unit": "µg/mL"}, {"measurement": "IC50", "setting": "[1]; [2]", "result": "1600 ± 600", "unit": "nM"}]}, {"smiles": "Cc1cc(=O)[nH]c2c3c4c(cc12)c(C)cc(=O)n4C(CN)CO3", "note": "(stereo not drawn) [Compound 11]", "values": [{"measurement": "MIC", "setting": "S. aureus", "result": 4, "unit": "µg/mL"}, {"measurement": "MIC", "setting": "E. coli", "result": 2, "unit": "µg/mL"}, {"measurement": "IC50", "setting": "[1]; [2]", "result": "860 ± 70", "unit": "nM"}]}, {"smiles": "O=C(O)c1cn(C2CC2)c2cc(N3CCNCC3)c(F)cc2c1=O", "note": "[ciprofloxacin, reference compound]", "values": [{"measurement": "Antiproliferative effect against MDA-MB-231 cells", "setting": "[1]; doses as high as 50 μM", "result": "only minimal effects"}]}, {"smiles": "Cc1cc(=O)n2c3c(c4c(cc13)c1ccccc1c(=O)n4C)OCC2", "note": "[Compound 14]", "values": [{"measurement": "MIC", "setting": "S. aureus", "result": 2, "unit": "µg/mL"}, {"measurement": "MIC", "setting": "MRSA", "result": 0.5, "unit": "µg/mL"}, {"measurement": "MIC", "setting": "E. coli", "result": "> 16", "unit": "µg/mL"}, {"measurement": "IC50", "setting": "[1]; [2]", "result": "930 ± 400", "unit": "nM"}]}]}
